The structures appear in SMILES notation.

The subject of one experiment is Enterobacter cloacae. In words: Colony colour test of chromogenic substrate in medium (Example 1). Format: cell-based. An excerpt: (§1) 6-Chloroindolyl-β-D-galactoside and 5-bromo-4-chloro-3-indolyl-β-D-glucuronide (X-gluc) were each tested separately with 17 different bacterial species including β-galactosidase producing microorganisms, β-glucuronidase producing microorganisms, and microorganisms which produce neither enzyme.

The subject of a further experiment is Bacillus subtilus. The description is as above. Format: cell-based.
From the text: as §1

A further experiment has as its system Escherichia coli. The experiment is described as above. Format: cell-based. The conditions noted are these: for colour of colonies grown in medium containing the substrate: E. coli, substrates tested separately.
From the text: as §1

For the next experiment, the system named is Klebsiella pneumoniae. Described as above. Format: cell-based.
From the text: as §1

The test system of a further experiment is Enterobacter aerogenes. The description is as above. Format: cell-based.
From the text: as §1

The test system of another experiment is Staphylococcus aureus. The description is as above. Format: cell-based.
From the text: as §1

The subject of a further experiment is Sarcina lutea. The experiment is described as above. Format: cell-based.
From the text: as §1

Assay in experiment [1]: as above
Format: cell-based. The conditions noted are these: Staphylococcus faecalis.
From the text: as §1

For experiment [2], the system named is Staphylococcus epidermidis. The experiment is described as above. Format: cell-based.
From the text: as §1

For another experiment, the system named is Citrobacter freundii. The experiment is described as above. Format: cell-based.
From the text: as §1

Another experiment has as its system Bacillus cereus. The description is as above. Format: cell-based.
From the text: as §1

For a further experiment, the system named is Bacillus megaterium. Described as above. Format: cell-based.
From the text: as §1

In another experiment the test system is Pseudomonas aeruginosa. The experiment is described as above. Format: cell-based.
From the text: as §1

A further experiment deals with Salmonella typhimurium. Described as above. Format: cell-based.
From the text: as §1

Another experiment has as its system Serratia marcescens. The experiment is described as above. Format: cell-based.
From the text: as §1

In experiment [3] the test system is Acinetobacter calcoaceticus. Described as above. Format: cell-based.
From the text: as §1

The subject of the next experiment is Proteus vulgaris. The description is as above. Format: cell-based.
From the text: as §1

For experiment [4], the system named is β-galactosidase. An excerpt: The chromogenic β-galactosidase substrate is a β-galactoside comprising galactose joined by β-linkage to a substituent that forms an insoluble precipitate of a first color when liberated by the action of β-galactosidase on the substrate.
In experiment [5] the target is T1, β-glucuronidase (Escherichia coli, UniProt P05804).
T1 construct: E. coli produces β-galactosidase, but, unlike general (other) coliforms, also produces β-glucuronidase; endogenous in cells; host or cells: Escherichia coli colonies growing in the test medium
Nature of the experiment: Precipitate formed by substrate upon reaction with enzyme. Format: biochemical. From the text: The β-glucuronidase substrates and compounds described herein as “glucuronides” include carboxylate salts formed by reacting a suitable base with the glucuronic carboxyl group. Suitable bases include alkali metal or alkaline earth metal hydroxides or carbonates, for example, sodium hydroxide, potassium hydroxide, calcium hydroxide, magnesium hydroxide, and corresponding carbonates; and nitrogen bases such as ammonia and alkylamines such as trimethylamine, triethylamine and cyclohexylamine.

Experiment [6] concerns β-galactosidase. The conditions noted are these: known test compound; cited from earlier work.
The target of experiment [7] is T1, β-glucuronidase. The conditions noted are these: Watkins et al. 1988; cited from earlier work.
Another experiment relates to coliforms. In words: Enzyme inducer added to medium. Format: cell-based. The conditions noted are these: approximately 25 mg/liter of medium; some species of coliforms. An excerpt:
It is possible that the enzyme production of the general coliforms may be enhanced by the addition to the medium formulations of very small amounts of substances known as enzyme inducers. The specific inducer for β-galactosidase is available and is known chemically as isopropyl-β-D-thiogalactopyranoside.

T1 sequence (P05804 whole entry): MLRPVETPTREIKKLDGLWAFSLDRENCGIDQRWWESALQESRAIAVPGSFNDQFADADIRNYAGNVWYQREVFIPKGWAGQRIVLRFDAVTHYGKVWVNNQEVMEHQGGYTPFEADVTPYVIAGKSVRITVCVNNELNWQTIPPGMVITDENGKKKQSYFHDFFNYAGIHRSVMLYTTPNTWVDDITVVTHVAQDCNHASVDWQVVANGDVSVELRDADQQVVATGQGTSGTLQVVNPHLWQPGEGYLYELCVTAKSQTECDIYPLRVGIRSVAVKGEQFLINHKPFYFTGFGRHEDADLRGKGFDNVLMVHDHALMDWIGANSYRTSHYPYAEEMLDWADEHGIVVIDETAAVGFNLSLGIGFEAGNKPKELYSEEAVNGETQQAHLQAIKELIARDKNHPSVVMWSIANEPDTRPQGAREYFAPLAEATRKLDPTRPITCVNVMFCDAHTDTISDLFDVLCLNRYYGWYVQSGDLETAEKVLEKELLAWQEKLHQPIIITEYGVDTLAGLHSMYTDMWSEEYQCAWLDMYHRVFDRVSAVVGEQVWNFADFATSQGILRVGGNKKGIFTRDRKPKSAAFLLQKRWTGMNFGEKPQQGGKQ

With `OC[C@H]1O[C@@H](Oc2c[nH]c3cc(Cl)ccc23)[C@H](O)[C@@H](O)[C@H]1O` [6-chloroindolyl-β-D-galactoside], the “colour of colonies grown in medium containing the substrate” value in the experiment with Enterobacter cloacae, in the experiment on Escherichia coli, in the experiment with Klebsiella pneumoniae, in the experiment with Enterobacter aerogenes and in the experiment on Citrobacter freundii was “magenta colonies” each time. Also, the “coloured colonies in medium with 6-chloroindolyl-β-D-galactoside” value (shortened to “coloured colonies in medium”) is listed as “+” in the experiment with Enterobacter cloacae; “−” in the experiment with Bacillus subtilus; “+” with Escherichia coli (Escherichia coli); “+” in the experiment on Klebsiella pneumoniae; “+” with Enterobacter aerogenes; “−” in the experiment with Staphylococcus aureus. Also, the “coloured colonies in medium” value with Sarcina lutea is “−”; in experiment [1], “−”; in experiment [2] it was “−”; in the experiment on Citrobacter freundii, “+”; in the experiment with Bacillus cereus, “−”; with Bacillus megaterium, “−”. Also, the “coloured colonies in medium” value (in the experiment on Pseudomonas aeruginosa; in the experiment with Salmonella typhimurium; with Serratia marcescens; in [3]; in the experiment on Proteus vulgaris) was “−” each time. In addition, the “precipitate formed when reacted upon by β-galactosidase” value in the experiment with β-galactosidase [4] is listed as “insoluble magenta precipitate”.
Regarding `O=C(O)[C@H]1O[C@@H](Oc2c[nH]c3cc(Cl)ccc23)[C@H](O)[C@@H](O)[C@@H]1O` [6-chloroindolyl-β-D-glucuronide], the “precipitate formed when reacted upon by β-glucuronidase” value on β-glucuronidase [5] is listed as “insoluble magenta precipitate”.
For `OC[C@H]1O[C@@H](Oc2c[nH]c3ccc(Br)c(Cl)c23)[C@H](O)[C@@H](O)[C@H]1O` [X-gal, 5-bromo-4-chloro-3-indolyl-β-D-galactopyranoside], in the experiment with β-galactosidase [6], the “precipitate formed when acted on by β-galactosidase” value was “insoluble indigo blue precipitate”.
On to `O=C(O)[C@H]1O[C@@H](Oc2c[nH]c3ccc(Br)c(Cl)c23)[C@H](O)[C@@H](O)[C@@H]1O` [X-gluc, 5-bromo-4-chloro-3-indolyl-β-D-glucuronide, reference compound], for which the “coloured colonies in X-gluc medium” value in the experiment with Enterobacter cloacae is on record as “−”; in the experiment with Bacillus subtilus, “−”; in the experiment with Escherichia coli (Escherichia coli), “+”; in the experiment on Klebsiella pneumoniae, “−”; with Enterobacter aerogenes it was “−”; with Staphylococcus aureus it was “−”. Besides, the “coloured colonies in X-gluc medium” value (with Sarcina lutea; in [1]; in experiment [2]; in the experiment with Citrobacter freundii; with Bacillus cereus; in the experiment with Bacillus megaterium) was “−” each time. For the same molecule, the “coloured colonies in X-gluc medium” value (in the experiment on Pseudomonas aeruginosa; in the experiment on Salmonella typhimurium; in the experiment on Serratia marcescens; in experiment [3]; with Proteus vulgaris) was “−” in each case. Besides, the “colour of colonies grown in medium containing the substrate” value with Escherichia coli is listed as “indigo blue colonies”. In addition, the “precipitate formed when acted on by β-glucuronidase” value at β-glucuronidase [7] was “insoluble indigo blue precipitate”.
In the case of `CC(C)S[C@@H]1O[C@H](CO)[C@H](O)[C@H](O)[C@H]1O` [isopropyl-β-D-thiogalactopyranoside], in the experiment on coliforms, the “effect on speed of enzyme (β-galactosidase) production” value was “positive and noticeable effect on the speed of enzyme production”.

Values taken from patent US6699685B1, “Method, test media and chromogenic compounds for identifying and differentiating general coliforms and escherichia coli bacteria” (RCR Scientific, Inc., priority 1990, dated 2004).
